# Measurements reported in patent US9642829B2, “Antifungal compound and uses thereof” (The University of Hong Kong, priority 2012, dated 2017).
# How the values were obtained:
# C. tropicalis = assay: Antifungal susceptibility (MIC/MFC), CLSI criteria; type: cell-based, Candida tropicalis; settings: C. tropicalis ATCC; 0.5 McFarland inoculum (10^6 cells/ml)
# Method: Antifungal activity of the small molecules was evaluated using USA standards, Clinical and Laboratory Standards Institute (CLSI) criteria. In brief, inocula from 24 h Candida cultures on Sabourauds's dextore agar were standardized to a turbidity equivalent of 0.5 McFarland standards at 520 nm with a spectrophotometer. The suspensions were further diluted in Rosewell Park Memorial Institute (RPMI) 1640 medium (Life technologies, New York, USA) to yield an inoculum concentration of approximately 0.5 1×10^3 to 2.5 1×10^3 cells/ml. Minimum inhibitory concentration (MIC) and minimum fungicidal concentration (MFC) assay was performed in 96-well plates (Iwaki, Tokyo, Japan) and each of the Candida species was exposed to a double dilution of SM21. Amphotericin B was used as a positive control. All the experiments were preformed three occasions with duplicates for all isolates. The plates were incubated at 35° C. for 48 h to evaluate MIC. In the case of Cryotococcus neoformans, reading were taken after 72 h. Aforementioned assay was performed for C. albicans ATCC 90028, C. albicans SC5314 and 10 C. albicans clinical isolates. Moreover, MIC/MFC determination was carried out for other fungal species such as C. glabrata, C. krusei, C. tropicalis, C. parapsilosis, C. neoformans, Aspergillus fumigates and Penicillium marneffei. […]
# Aspergillus fumigatus = assay: Antifungal susceptibility (MIC/MFC), CLSI criteria; type: cell-based; settings: 0.5 McFarland inoculum (10^6 cells/ml)
# Method: (§1) Antifungal activity of the small molecules was evaluated using USA standards, Clinical and Laboratory Standards Institute (CLSI) criteria. In brief, inocula from 24 h Candida cultures on Sabourauds's dextore agar were standardized to a turbidity equivalent of 0.5 McFarland standards at 520 nm with a spectrophotometer. The suspensions were further diluted in Rosewell Park Memorial Institute (RPMI) 1640 medium (Life technologies, New York, USA) to yield an inoculum concentration of approximately 0.5 1×10^3 to 2.5 1×10^3 cells/ml. Minimum inhibitory concentration (MIC) and minimum fungicidal concentration (MFC) assay was performed in 96-well plates (Iwaki, Tokyo, Japan) and each of the Candida species was exposed to a double dilution of SM21. Amphotericin B was used as a positive control. All the experiments were preformed three occasions with duplicates for all isolates. The plates were incubated at 35° C. for 48 h to evaluate MIC. In the case of Cryotococcus neoformans, reading were taken after 72 h. Aforementioned assay was performed for C. albicans ATCC 90028, C. albicans SC5314 and 10 C. albicans clinical isolates. Moreover, MIC/MFC determination was carried out for other fungal species such as C. glabrata, C. krusei, C. tropicalis, C. parapsilosis, C. neoformans, Aspergillus fumigates and Penicillium marneffei. […] Next using dose-dependent assay we tested that MIC/MFC of SM21 from 10^3 cells/ml to 10^7 cells/ml of C. albicans (Table 2). Each of the foregoing experiment was repeated on three different occasions.
# Penicillium marneffei = assay: Antifungal susceptibility (MIC/MFC), CLSI criteria; type: cell-based; settings: 0.5 McFarland inoculum (10^6 cells/ml)
# Method: as §1
# [1] = system: C. albicans drug resistant isolate; assay: Susceptibility of multidrug resistant clinical isolates, CLSI M27A broth microdilution; type: cell-based, Candida albicans; settings: C. albicans T1675; resistant to Fluconazole, Itraconazole
# From the text: (§2) Oral Biosciences laboratory has one of the largest collections of fungal isolates, particular that of Candida species in the world. In our previous studies, we have found multidrug resistant clinical isolates of Candida species against existing antifungals. In particular, some of these strains are resistant to best antifungal agents to date such as caspofungin, amphotericin B and fluconazole. Therefore, we performed antifungal susceptibility testing for SM21 against these drug resistant Candida isolates suing CLSI M27A brothmicrodultion assay and CLSI M44-A disc diffusion assay.
# [2] = system: C. glabrata drug resistant isolates; assay: as above; type: cell-based, Candida glabrata
# From the text: as §2
# [3] = system: C. albicans SC5314 and C. albicans ATCC 90028; assay: Antifungal activity compared with caspofungin and amphotericin B (FIG. 2, CLSI M44-A disc diffusion); type: cell-based, Candida albicans
# From the text: as §2
# C. glabrata biofilms = assay: Mono species Candida biofilm MIC, XTT assay; type: cell-based; settings: 48 h C. glabrata biofilms
# Method: (§3) For instance, we have previously shown the resistance of Candida biofilms against amphotericin and caspofungin. Therefore, next using standard biofilm assays we have established in our laboratory, we examined the effect of SM21 against Candida biofilms. In brief, Candida cells were grown in SDA medium at 37° C. for 18 h. Then a loopful of the yeast was inoculated into the yeast nitrogen base (YNB; Difco) medium supplemented with 50 mM glucose in a rotary shaker at 75 rpm. After overnight broth culture, the yeasts were harvested in the late exponential growth phase and washed twice with 20 ml of phosphate buffer saline (PBS; pH 7.2. 0.1 M) prior to use in the biofilm studies. Candida biofilms were developed according to a previously published protocol. In brief, washed yeast cells were resuspended in YNB supplemented with 100 mM glucose and adjusted to an optical density of 0.38 at 520 nm (1×10^7 cells/ml). The standard cell suspension was used immediately to develop biofilms on commercially available presterilized, polystyrene, 96-well plate (IWAKI, Tokyo, Japan). At first, 100 μl of standardized cell suspension (1×10^7 cells/ml) was pipetted into each well of a microtiter plate and incubated for 1.5 h at 37° C. in a shaker at 75 rpm to permit yeast adherence to the well surface (adherence phase). For controls, a well of each microtiter plate was handled in an identical fashion except that no Candida suspension was added. Following the adhesion phase, the cell suspensions were aspirated, and each well washed with 100 μl of PBS to remove loosely adherent cells. 200 μl of YNB with 100 mM glucose were then pipetted into each of the washed wells and the plates incubated at 37° C. in a shaker at 75 rpm for 24 or 48 h. After biofilm growth phase microscopic examination of the cultures were performed to rule out contamination. Then, the suspending medium was aspirated and biofilms were washed with 100 μl PBS to remove the nonadherent cells. The stock solutions were diluted twofold with RPMI 1640 supplemented with 2% glucose to obtain SM21 concentration from 100 to 0.2 μg/ml drug concentrations. In parallel, other antifungal agents such as caspofungin (100 to 0.1 μg/ml) and amphotericin B (240 μg/ml to 0.225 μg/ml) was also prepared as describe above. A total of 100 μl of drug solution was added to the microtiter plate containing Candida biofilms. Biofilms were then incubated at 37° C. for 24 h with the antifungals and afterwards metabolic activity of fungal cells was determined by the XTT [2,3-bis(2-methoxy-4-nitro-5-sulfophenyl)-2H-tetrazolium-5-carboxanilide sodium salt] assay (17, 28). Candida biofilm MIC90 was defined as the lowest drug concentration with 90% reduction in opacity compared with the drug free control. Each experiment was repeated three times with four replicates.
# C. krusei biofilms = assay: Mono species Candida biofilm MIC, XTT assay; type: cell-based; settings: 48 h C. krusei biofilms
# Method: as §3
# C. albicans = assay: Systemic candidiasis mouse model; type: in vivo; settings: i.v. C. albicans 1×10^6 cells/mL, 100 μl; 2 μg SM21 from 3 h post-infection, twice a day for five days
# Method: As a pilot study, we used systemic candidiasis mouse models we have established in our laboratory to evaluate the effect of SM21 against systemic Candida infection. In brief, C. albicans inoculum of 1×10^6 cells/mL was prepared in phosphate buffered saline (PBS) eight mice were infected with 100 μl of the standard inoculum size intravenously via the tail vein. Three hours after post-infection four mice (test group) were given 2 μg of SM21 and other four (control group) were given PBS. SM21 treatment was continued twice a day for five days. By five days all mice in the control group died (FIG. 8). Mice in each test group were sacrificed according to the standard guidelines and their kidney, liver, pancreas, and spleen will be harvested. The fungal burden in the tissues will be assessed according to a standard protocol. In brief, part of the excised tissues were weighed individually and homogenized in sterile saline. Aliquots of 100 μL from tissue homogenates and their dilutions were plated on Sabouraud's dextrose agar and colonies were counted after 48 h of incubation at 37° C.
compound,measurement,setting,value
CN(C)c1ccc(/C=C/c2cc(C(C)(C)C)[o+]c(C(C)(C)C)c2)cc1.[O-][Cl+3]([O-])([O-])[O-] [SM21],Susceptibility (MIC90),C. tropicalis,0.8 µg/mL
same,Susceptibility (MIC90),Aspergillus fumigatus,6.25 µg/mL
same,Susceptibility (MIC90),Penicillium marneffei,0.2 µg/mL
same,MIC,[1],0.5 µg/mL
same,MIC,"[2]; C. glabrata 1570, resistant to Itraconazole",0.5 µg/mL
same,MIC,"[2]; C. glabrata T1585, resistant to Fluconazole, Itraconazole, ketoconazole, Voriconazole",1 µg/mL
same,MIC,"[2]; C. glabrata T1672, resistant to Itraconazole, Ketaconazole",0.5 µg/mL
same,Susceptibility of the strain to the agent,"[3]; C. albicans ATCC 90028, CLSI quality control strain (FIG. 2B)",susceptible
same,Susceptibility of the strain to the agent,[3]; C. albicans SC5314 (FIG. 2A),susceptible
same,Minimum inhibitory concentration of 48 h Candida biofilms,C. glabrata biofilms,25 µg/mL
same,Minimum inhibitory concentration of 48 h Candida biofilms,C. krusei biofilms,25 µg/mL
same,Survival of infected mice,C. albicans,saved all the mice
